Laboratory results published in patent US12558345B2, “CHK1/2 inhibitors for use in the treatment of neuroblastomas and/or soft tissue sarcomas” (Eli Lilly and Company, priority 2015, dated 2026).
Where a name gives a salt, the structure may show the parent alone.

Assays:
HT-29 cells = assay: ECtfs (Two-Fold Sensitization) Assay; type: cell-based
Procedure: An inhibitor of CHK1 can potentiate the anti-proliferative activity of gemcitabine (or other cytotoxics) through abrogation of the intra-S phase checkpoint, resulting in sustained and increased DNA damage. The capacity for continued tumor cell proliferation after DNA damage can be analyzed by determining the ability of cells to replicate their DNA. […] In this assay, cells are treated with gemcitabine, and then with the compound of Example 2. Following a recovery period, cells are assayed for the ability to incorporate radioactive thymidine into DNA during S phase. The ECtfs parameter is a measure of the concentration of a CHK1 inhibitor necessary to reduce by half the GI90 concentration of gemcitabine, measured in this assay in the absence of CHK1 inhibition. HT-29 cells (obtained from ATCC), are grown in RPMI 1640 plus (Gibco™) 10% (v/v) heat inactivated FBS. These cells are plated at 1.3×10^3 per well on Corning Costar 96-well tissue culture plates. After plating the cells, the tissue culture plates are held at room temperature for 45 minutes, before returning to 37° C. Plates are incubated for 24 hours prior to gemcitabine addition. Before gemcitabine addition, medium is removed from all wells and replaced with 150 μL per well of fresh RPMI medium. Gemcitabine stocks at 10 mM are prepared in PBS. Gemcitabine dilutions were prepared at 4× concentrations in RPMI medium and added to wells at 50 μL per well. The highest final concentration of gemcitabine used is 80 μM and dilutions proceed by four-fold steps. Two hours later, gemcitabine-containing medium is removed from the wells and replaced with 150 μL per well of fresh RPMI medium. […] The volume of addition is 50 μL. Compound dilutions proceed by two-fold steps, starting at 5000 nM. […] Twenty μL of this solution is added to each well, yielding 1 µCi/well of ^3H-thymidine. Cells are labeled for twenty-two hours. The medium containing ^3H-thymidine is thoroughly removed from the wells. The plates are then frozen at −20° C., for several hours. To harvest the DNA containing incorporated ^3H-thymidine, plates are thawed for several minutes, and then 120 μL per well of 0.1 N NaOH is added to each well. Each plate is then incubated at 37° C., with slow mixing on a rotator, for 10 minutes. DNA is harvested with a Filtermate 196 Harvester (PerkinElmer) and collected on 96-well Unifilter GF/C plates (PerkinElmer #6005174). The wells of the tissue culture plate on which cells had been labeled are washed with water (5×). The Unifilter plate membranes are washed with an additional 4.5 mL per well (3×1.0 mL and finally a 1.5 mL wash). The Unifi is sealed with a Backseal adhesive sheet (PerkinElmer), and the 50 μL/well of MicroScint-20 (Perkin Elmer) is added. Each plate is then sealed with a Topseal clear adhesive sheet (PerkinElmer). Plates are counted on a Topcount scintillation counter (PerkinElmer), at 1 minute per well. ^3H-thymidine counts per minute (cpm) are exported into Prism (GraphPad) for analysis and plotting. […] For plotting the data in Prism, the gemcitabine concentrations are transformed to log values, and dose-response curves are fit by non-linear regression. Neither top nor bottom fits are constrained. The ECtfs value is 0.3 nM.

[1] = system: ST162 patient-derived xenograft; assay: Xenograft Tumor Model ST162; type: in vivo, mouse; conditions: ST162, LMS, comparator day 39, p-value <0.001
Procedure: (§1) For all “ST” models (encompassing RMS and LMS), patient-derived xenografts are established from viable human tumor tissue and are serially passaged in animals a limited number of times to maintain tumor heterogeneity. In subcutaneous models, athymic nude mice (Crl:NU(NCr)-Foxn1nu) or CB-17 SCID mice (CRL-CB17/Icr-Prkdcscid/IcrIcoCrl) are injected or implanted unilaterally into the flank with tumor fragments harvested from host animals, each implanted from a specific passage lot. For all studies, measure tumor growth and body weight twice per week beginning on the seventh day after implantation. When tumor size reaches 150-300 mm^3, randomize animals and group into groups of 4-7 animals. Prepare test compound in an appropriate vehicle (e.g. vehicle can be 20% Captisol® in sterile water) and administer subcutaneously for three consecutive days followed by a four day dosing holiday and repeat for a minimum of four weeks. Tumor response is determined by tumor volume measurement performed twice per week during the course of treatment.

DSRCT xenograft models = assay: Sarcoma xenograft models by tumor subtype: DSRCT; type: in vivo, mouse
Procedure: (§2) The efficacy of 5-(5-(2-(3-aminopropoxy)-6-methoxyphenyl)-1H-pyrazol-3-ylamino)pyrazine-2-carbonitrile methanesulfonic acid monohydrate is measurable in vivo in mouse models of neuroblastomas and human pediatric and adult sarcomas. 5-(5-(2-(3-Aminopropoxy)-6-methoxyphenyl)-1H-pyrazol-3-ylamino)pyrazine-2-carbonitrile methanesulfonic acid monohydrate (10 mg/kg) can be administered subcutaneously to nude mice bearing either cell-derived xenografts (CDX) or patient-derived xenografts (PDX) of human rhabdomyosarcoma, desmoplastic small round cell tumor (DSRCT), osteosarcoma, and Ewing's sarcoma using a 3 day on, 4 day off b.i.d. dosing schedule. Tumor volume and body weight can be measured two times per week. Tumor-specific parameters can be evaluated by immumohistochemistry.
For all “CTG” models (encompassing human RMS, DSRCT, EWS, OS and LMS patient-derived xenograft models), female NCr nude spontaneous mutant mice (5-8 weeks old, Taconic) are implanted unilaterally in the flank region with tumor fragments harvested from donor animals, each implanted from a specific passage lot.
as §1

[2] = system: Alveoloar Rhabdomyosarcoma xenograft models; assay: Sarcoma xenograft models by tumor subtype: Alveolar Rhabdomyosarcoma; type: in vivo, mouse; conditions: age of patients 17-24 years
Procedure: as §2
Expand human RMS cancer cells SJCRH-30 (St. Jude Children's Research Hospital) in culture, harvest, and inject 5×10^6 cells in 200 μL of HBSS subcutaneously into the right rear flank of female athymic nude mice (20-22 g, Harlan Laboratories). […]
For all “ST” models (encompassing RMS and LMS), patient-derived xenografts are established from viable human tumor tissue and are serially passaged in animals a limited number of times to maintain tumor heterogeneity. […] Tumor response is determined by tumor volume measurement performed twice per week during the course of treatment.

Row | SMILES | decrease of the EC50 of gemcitabine (HT-29 cells; HT29 cells, 3 nM of the compound of Example 2) [fold] | ECtfs value (HT-29 cells; HT-29 cells, concentration necessary to reduce by half the GI90 concentration of gemcitabine, 3H-thymidine incorporation) [nM] | effect on the proliferation of HT29 cells (HT-29 cells; compound alone, 3 nM) | % Regression [1] [%] | Result of Treatment: Complete Response (models) (DSRCT xenograft models; DSRCT, age of patients 20 years) | tumor response when re-challenged (DSRCT xenograft models; PDX model of DSRCT, after regrowth) | time post-treatment at which tumor growth is observed (DSRCT xenograft models; PDX model of DSRCT, upon cessation of therapy) [days] | tumor response in a PDX model of DSRCT (DSRCT xenograft models; following four dosing cycles) | Result of Treatment: Complete Response (models) [2]
1 | COc1cccc(OCCCN)c1-c1cc(Nc2cnc(C#N)cn2)n[nH]1 [Example 2, 5-(5-(2-(3-Aminopropoxy)-6-methoxyphenyl)-1H-pyrazol-3-ylamino)pyrazine-2-carbonitrile dihydrogen chloride salt] | 7 | 0.3 | little effect |  |  |  |  |  | 
2 | COc1cccc(OCCCN)c1-c1cc(Nc2cnc(C#N)cn2)n[nH]1 [Example 5, 5-(5-(2-(3-Aminopropoxy)-6-methoxyphenyl)-1H-pyrazol-3-ylamino)pyrazine-2-carbonitrile methanesulfonic acid monohydrate] |  |  |  | −93 | 1/1 Complete | tumor regression | 50 | complete regression | 2/2 Complete
